This is an account of results in patent US20230200391A1, “ACTIVE COMPOUND COMBINATIONS AND FUNGICIDE COMPOSITIONS COMPRISING THOSE” (priority 2020, published 2023).

What all share (type): cell-based
Test [1] relates to Alternaria alternata. The experiment in a line: in vitro-Test with Alternaria alternata. On the procedure:
(§1) Wells of 96-well microtiter plates are filled with 30 μl of a preparation of test compound or compound combination in methanol+emulsifier alkylaryl-polyglycol-ether. Thereafter, the solvent is evaporated in a hood. At the next step, into each well 200 μl of liquid growth medium is given, that has been amended with an appropriate concentration of spores or mycelium suspension of the test fungus.
(§2) With the aid of a photometer the extinction in all wells is measured at the wavelength of 600 nm.
(§3) The microtiter plates are incubated for 3 to 7 days at 20° C. and 85% relative humidity. After the incubation inhibition of growth is determined photometrically. Efficacy is calculated in relation to the untreated control, 0% efficacy means fungal growth as high as in untreated control while 100% efficacy means no fungal growth is measured.

For test [2], the system named is Botrytis cinerea. The experiment in a line: in vitro-Test with Botrytis cinerea. On the procedure: as §1, §2, §3
The subject of test [3] is Colletotrichum coccodes. The experiment in a line: in vitro-Test with Colletotrichum coccodes. On the procedure:
as §1, §2, §3

For test [4], the system named is Cordana musae. Nature of the test: in vitro-Test with Cordana musae. On the procedure: as §1, §2, §3
The test system of test [5] is Fusarium culmorum. The experiment in a line: in vitro-Test with Fusarium culmorum. On the procedure:
as §1, §2, §3

Test [6] has as its system Parastagonospora nodorum. The experiment in a line: in vitro-Test with Parastagonospora nodorum. On the procedure: as §1, §2, §3
Test [7] concerns Cercospora beticola. Nature of the test: in vitro-Test with Cercospora beticola. Here is the method:
as §1, §2, §3

Test [8] relates to Diaporthe citri. The experiment in a line: in vitro-Test with Diaporthe citri. On the procedure:
as §1, §2, §3

The subject of test [9] is Ustilago segetum var. avenae. Nature of the test: in vitro-Test with Ustilago segetum var. avenae. On the procedure: as §1, §2, §3

Several values for one entry are separate records, joined by “and”; a condition that tells them apart may be missing. Equal entries are not always repeated.

Regarding `O=C(NC1CCC1c1ccc(Cl)cc1Cl)c1cccnc1C(F)(F)F` (stereo in doubt) [(2.060), cyclobutrifluram], the efficacy % in test [1] (0.04 ppm) was 80%; in test [1] (5 ppm), 88%; in test [2] (0.04 ppm) it was 49%; in [2] (0.2 ppm) it was 77%; in [2] (1 ppm) it was 92%; in test [3] (0.04 ppm), 0%. The efficacy % was determined as 0% in test [3] (0.2 ppm); 0% in test [3] (1 ppm); 12% in [3] (5 ppm); 0% in [4] (0.04 ppm); 0% in test [4] (0.2 ppm); 47% in [5] (0.04 ppm). Also, the efficacy % stood at 56% in test [5] (5 ppm); 0% in test [6] (5 ppm); 5% in test [6] (single compound at 0.04 ppm); 13% in [6] (single compound at 0.2 ppm); 98% in test [6] (single compound at 5 ppm).

With `OC(Cc1ccccc1Cl)(Cn1nc[nH]c1=S)C1(Cl)CC1` (stereo not drawn) [(1.018), prothioconazole], the efficacy % in test [1] (0.004 ppm) stood at 26%; in test [1] (0.02 ppm), 13%; in [1] (0.1 ppm) it was 37%; in [7] (0.1 ppm) it was 100%; in test [7] (0.5 ppm), 96%; in test [3] (0.004 ppm), 0%. Moreover, the efficacy % is 3% and 0% and 2% in test [4] (0.004 ppm); 99% in [4] (0.5 ppm); 14% in test [8] (0.004 ppm); 98% in test [8] (0.1 ppm); 99% in test [8] (0.5 ppm); 3% in test [5] (0.004 ppm). Also, the efficacy % in test [5] (0.02 ppm) is on record as 0%; in test [6] (0.02 ppm), 83%; in test [6] (0.1 ppm), 97%; in test [6] (0.5 ppm) it was 97%; in [6] (single compound at 0.004 ppm) it was 2%; in test [9] (0.004 ppm) it was 45%. The efficacy % in test [9] (0.1 ppm) and in test [9] (0.5 ppm) was 99% each time.

Regarding `O=C(NCCc1ncc(C(F)(F)F)cc1Cl)c1ccccc1C(F)(F)F` [(2.005), fluopyram], the efficacy % in [1] (0.16 ppm) came to 67%; in test [1] (20 ppm), 89%; in test [2] (0.16 ppm), 48%; in test [2] (0.8 ppm) it was 77%; in test [2] (20 ppm) it was 97%; in [7] (0.16 ppm), 25%. Moreover, the efficacy % in [7] (0.8 ppm) was 0%; in test [7] (4 ppm), 11%; in test [6] (4 ppm), 49%; in test [6] (20 ppm) it was 86%.

Regarding `Cc1nn(C)c(F)c1C(=O)Nc1ccccc1C(C)CC(C)C` (stereo not drawn) [(2.017), penflufen], the efficacy % is 10% in test [1] (0.04 ppm); 65% in [1] (1 ppm); 0% in [6] (0.2 ppm); 42% in test [6] (5 ppm); 0% in test [6] (single compound at 0.04 ppm); 4% in test [6] (single compound at 0.2 ppm). The efficacy % was 17% in test [6] (single compound at 1 ppm) and 48% in [6] (single compound at 5 ppm).

In the case of `CC(C)c1ccc(Cl)cc1CN(C(=O)c1c(C(F)F)nn(C)c1F)C1CC1` [(2.038), isoflucypram], the efficacy % in test [1] (1 ppm) is recorded as 76%; in test [2] (0.2 ppm), 74%; in test [2] (1 ppm), 86%; in [7] (0.04 ppm), 0%; in [5] (0.04 ppm), 0%.

With `CO/N=C(/C1=NOCCO1)c1ccccc1Oc1ncnc(Oc2ccccc2Cl)c1F` [(3.012), fluoxastrobin], the efficacy % in test [1] (0.4 ppm) was 87%; in test [3] (2 ppm), 85%; in [4] (2 ppm), 74%; in test [4] (10 ppm), 81%; in test [5] (0.4 ppm) it was 26%; in test [5] (2 ppm), 34%. The efficacy % in test [5] (10 ppm) is 47% and 54%.

As for `CON=C(C(=O)OC)c1ccccc1CON=C(C)c1cccc(C(F)(F)F)c1` [(3.020), trifloxystrobin], the efficacy % stood at 22% in [1] (0.008 ppm); 62% in [1] (0.04 ppm); 5% in test [2] (0.008 ppm); 17% in test [2] (0.04 ppm); 13% in test [2] (0.2 ppm); 7% in [3] (0.008 ppm). For the same molecule, the efficacy % in test [5] (0.008 ppm) came to 0%; in test [5] (0.04 ppm), 19%; in test [6] (single compound at 0.008 ppm), 32%; in test [6] (single compound at 0.04 ppm) it was 73%; in [6] (single compound at 1 ppm) it was 97%.

Regarding `Cc1cccc(-n2nnn(C)c2=O)c1COc1ccn(-c2ccc(Cl)cc2)n1` [(3.030), metyltetraprole], the efficacy % in [2] (0.008 ppm) is recorded as 11%; in test [2] (0.4 ppm), 34%; in test [2] (2 ppm) it was 41%; in [2] (10 ppm) it was 81%; in [3] (0.08 ppm), 25%; in test [3] (0.4 ppm) it was 73%. For the same molecule, the efficacy % in test [3] (10 ppm) was 100%; in test [4] (0.08 ppm) it was 44%; in test [4] (0.4 ppm) it was 70%; in test [4] (2 ppm), 78%; in test [8] (2 ppm) it was 95%; in test [8] (10 ppm), 99%. In addition, the efficacy % in test [9] (10 ppm) is on record as 34%.

For the molecule `COC(=O)C(O)(Cn1cncn1)c1ccc(Oc2ccc(Cl)cc2)cc1Cl` (stereo not drawn) [(I-1), Methyl 2-[2-chloro-4-(4-chlorophenoxy)phenyl]-2-hydroxy-3-(1,2,4-triazol-1-yl)propanoate], the efficacy % in test [2] (0.02 ppm) is given as 3%; in test [2] (0.2 ppm), 0%; in test [2] (0.5 ppm), 27%; in test [7] (0.5 ppm), 100%; in [7] (2.5 ppm) it was 100%; in [3] (0.1 ppm), 0%. Moreover, the efficacy % was 32% in [3] (0.5 ppm); 0% in [4] (0.02 ppm); 5% in [4] (0.1 ppm); 15% in test [4] (0.5 ppm); 99% in test [4] (2.5 ppm); 0% in test [8] (0.1 ppm). The efficacy % in test [8] (0.5 ppm) is 96%; in test [5] (0.02 ppm), 14% and 10% and 4%; in test [5] (0.5 ppm), 0%; in test [6] (0.1 ppm), 87%; in test [6] (0.5 ppm), 98%; in test [6] (2.5 ppm) it was 96%. Moreover, the efficacy % in test [6] (single compound at 0.02 ppm) turned out to be 0%; in test [9] (0.02 ppm), 9%; in test [9] (0.5 ppm), 96%; in test [9] (2.5 ppm) it was 98%.

As for inpyrfluxam [(2.027)], the efficacy % is 3% in test [4] (1 ppm); 86% and 84% in test [8] (1 ppm).

Consider mancozeb [(5.013)], for which the efficacy % was 0% in test [1] (0.16 ppm); 0% and 1% in test [1] (0.8 ppm); 74% in [1] (20 ppm); 4% in test [2] (0.16 ppm); 6% in [2] (0.8 ppm); 6% in test [2] (4 ppm). In addition, the efficacy % was 98% and 100% in [7] (20 ppm); 24% in test [3] (4 ppm); 0% in test [4] (0.16 ppm); 0% in test [4] (0.8 ppm); 12% in test [4] (4 ppm); 0% in test [8] (0.8 ppm). Moreover, the efficacy % in [8] (20 ppm) is listed as 96%; in [5] (0.16 ppm), 0%; in test [5] (0.8 ppm) it was 0%; in [5] (4 ppm), 0%; in test [6] (single compound at 0.16 ppm), 0%.
